≈ marks a conversion by molar mass, not a printed value.
Key:
Type in all cases: functional
Staphylococcus aureus [1] = assay: Antibacterial activity against methicillin-sensitive Staphylococcus aureus Newman assessed as bacterial growth inhibition
Staphylococcus aureus [2] = assay: Antibacterial activity against methicillin-resistant Staphylococcus aureus N315 assessed as bacterial growth inhibition
Staphylococcus aureus [3] = assay: Antibacterial activity against methicillin-resistant and vancomycin-intermediate Staphylococcus aureus Mu50 assessed as bacterial growth inhibition
Streptococcus pneumoniae [4] = assay: Antibacterial activity against Streptococcus pneumoniae DSM-20566 assessed as bacterial growth inhibition
Streptococcus pneumoniae [5] = assay: Antibacterial activity against penicillin-resistant Streptococcus pneumoniae DSM-11865 assessed as bacterial growth inhibition
Enterococcus faecium = assay: Antibacterial activity against Enterococcus faecium DSM-20477 assessed as bacterial growth inhibition
Enterococcus faecalis = assay: Antibacterial activity against Enterococcus faecalis DSM-20478 assessed as bacterial growth inhibition
Escherichia coli [6] = assay: Antibacterial activity against wild type Escherichia coli DSM-11116 assessed as bacterial growth inhibition
Escherichia coli [7] = assay: Antibacterial activity against Escherichia coli K12 harbouring TolC-deficient mutant assessed as bacterial growth inhibition
[8] = test system: Mycolicibacterium smegmatis; assay: Antibacterial activity against Mycobacterium smegmatis mc2 155 assessed as bacterial growth inhibition

| SMILES | MIC (Staphylococcus aureus [1]) [µg/mL] | MIC (Staphylococcus aureus [2]) [µg/mL] | MIC (Staphylococcus aureus [3]) [µg/mL] | MIC (Streptococcus pneumoniae [4]) [µg/mL] | MIC (Streptococcus pneumoniae [5]) [µg/mL] | MIC (Enterococcus faecium) [µg/mL] | MIC (Enterococcus faecalis) [µg/mL] | MIC (Escherichia coli [6]) [µg/mL] | MIC (Escherichia coli [7]) [µg/mL] | MIC [8] [µg/mL] |
| --- | --- | --- | --- | --- | --- | --- | --- | --- | --- | --- |
| CCCCNc1nc(SCCCC)nc2ccc(Cl)cc12 | > 128 | > 128 | > 128 | > 128 | > 128 | > 128 | > 128 | > 128 | > 128 | > 128 |
| CCCCNc1nc(SCCCC)nc2ccc(-c3ccc(C(=O)O)cc3)cc12 | > 128 | > 128 | > 128 | > 128 | > 128 | > 128 | > 128 | > 128 | > 128 | > 128 |
| CCCCNc1nc(SCCCC)nc2c1cnn2CCCC | > 128 | > 128 | > 128 | 8 (≈ 23.8 µM) | > 128 | > 128 | > 128 | > 128 | > 128 | > 128 |
| CCCCNc1nc(SCCCC)nc2cc(Br)ccc12 | > 128 | > 128 | > 128 | > 128 | > 128 | > 128 | > 128 | > 128 | > 128 | > 128 |
| CCCCNc1nc(SCCCC)nc2ccc(Br)cc12 | > 128 | > 128 | > 128 | > 128 | > 128 | > 128 | > 128 | > 128 | > 128 | > 128 |
| CCCCNc1nc(SCCCC)nc2ccc(F)cc12 | > 128 | > 128 | > 128 | > 128 | > 128 | > 128 | > 128 | > 128 | > 128 | > 128 |
| CCCCNc1nc(SCCCC)nc2cc(-c3cccnc3)ccc12 | > 128 | > 128 | > 128 | > 128 | > 128 | > 128 | > 128 | > 128 | > 128 | > 128 |
| CCCCNc1nc(SCCCC)nc2ccc(-c3cccc(CO)c3)cc12 | > 128 | > 128 | > 128 | > 128 | > 128 | > 128 | > 128 | > 128 | > 128 | > 128 |
| CCCCNc1nc(SCCCC)nc2cc(-c3ccccc3)ccc12 | > 128 | > 128 | > 128 | > 128 | > 128 | > 128 | > 128 | > 128 | > 128 | > 128 |
| CCCCNc1nc(SCCCC)nc2cc(Cl)ccc12 | > 128 | > 128 | > 128 | > 128 | > 128 | > 128 | > 128 | > 128 | > 128 | > 128 |
| CCCCNc1nc(SC)nc2n[nH]cc12 | 64 (≈ 270 µM) | 64 (≈ 270 µM) | 64 (≈ 270 µM) | > 128 | > 128 | > 128 | > 128 | > 128 | 64 (≈ 270 µM) | > 128 |
| CC(=O)NC[C@H]1CN(c2ccc(N3CCOCC3)c(F)c2)C(=O)O1 [LINEZOLID] | 1 (≈ 2.96 µM) | – | – | – | – | 4 (≈ 11.9 µM) | – | > 64 | 16 (≈ 47.4 µM) | 4 (≈ 11.9 µM) |
| CN[C@H](CC(C)C)C(=O)N[C@H]1C(=O)N[C@@H](CC(N)=O)C(=O)N[C@H]2C(=O)N[C@H]3C(=O)N[C@H](C(=O)N[C@H](C(=O)O)c4cc(O)cc(O)c4-c4cc3ccc4O)[C@H](O)c3ccc(c(Cl)c3)Oc3cc2cc(c3O[C@@H]2O[C@H](CO)[C@@H](O)[C@H](O)[C@H]2O[C@H]2C[C@](C)(N)[C@H](O)[C@H](C)O2)Oc2ccc(cc2Cl)[C@H]1O [VANCOMYCIN] | – | – | 8 (≈ 5.52 µM) | 0.5 (≈ 0.345 µM) | 1 (≈ 0.69 µM) | – | 0.5 (≈ 0.345 µM) | > 64 | > 64 | 8 (≈ 5.52 µM) |

— ChEMBL document CHEMBL5131432, “Novel 2,4-disubstituted quinazoline analogs as antibacterial agents with improved cytotoxicity profile: Modification of the benzenoid part” (Bioorg Med Chem Lett, 2022)
